Test results: patent US10022356B2, “Compounds for treatment of cancer” (UNIVERSITY OF TENNESSEE RESEARCH FOUNDATION, priority 2013, dated 2018)

Tests used:
B16-F1 melanoma = B16-F1 melanoma tumors in C57/BL mice; format: in vivo; details: after 13 days of treatment, C57BL/6 mice
Experimental: C57BL/6 mice bearing B16-F1 melanoma allograft (n=5 per group). Each mouse received 0.5×10^6 cells by s.c. injection into the flank. 30 μL i.p. daily treatments were started when tumor size reached ˜100 mm^3. […] Control, vehicle solution only; points, means; bars, SD. DTIC, (5-(3,3,-dimethyl-1-triazenyl)-imidazole-4-carboxamide, dacarbazine.
Female C57/BL mice, age 4-6 weeks, were purchased from Harlan Laboratories (Harlan Laboratories Inc., Indianapolis, Ind.). The animal housing met the Association for Assessment and Accreditation and Laboratory Animal Care specifications. All of the procedures were conducted in accordance with guidelines of our Institutional Animal Care and Use Committee.
The cell suspension (100 μL) was injected subcutaneously in the right dorsal flank of each mouse. When tumor size reached about 100-150 mm^3, about 7 days after cell inoculation, all mice bearing tumors were divided into control and treatment groups based on tumor size (n=5 per group). Each group had similar average tumor size. Mice in control groups (negative control) were injected intraperitoneally with 50 μL vehicle solution only or DTIC at 60 mg/kg (positive control) once daily. Tumor volume was measured every 2 days with a traceable electronic digital caliper (Fisher Scientific, Inc., Pittsburgh, Pa.) and calculated using the formula a×b^2×0.5, where a and b represented the larger and smaller diameters, respectively. Tumor volume was expressed in cubic millimeters. Data were expressed as mean±SE for each group and plotted as a function of time. […] Animal activity and average body weight of each group were monitored during the entire experiment period to assess compound toxicity. At the end of treatment, all mice were euthanized by CO2 followed by cervical dislocation, and tumors were harvested for further studies.

[1] = tested on: metastasis of melanoma to the lungs; assay: Melanoma lung metastasis model in mice; format: in vivo; details: i.p. injection 5 days per week for 2 weeks (FIG. 28)
Description: Panel A: Representative photos of lungs with melanoma nodules (black dots, n=8 per group). Treatment was i.p. injection 5 days per week for 2 weeks. Panel B: Number of melanoma nodules on each lung. […] Panel C: Mouse body weight changes during the experiment. Points: means; bars: SD. Control: vehicle solution only.

[2] = tested on: A375 human melanoma xenograft; assay: A375 human melanoma xenograft in SHO nude mice; format: in vivo; details: 25 mg/kg; after 31 days of treatment
Experimental: FIG. 19 depicts in vivo study of ABI compounds. […] C57BL/6 mice bearing B16-F1 melanoma allograft (n=5 per group). Each mouse received 0.5×10^6 cells by s.c. injection into the flank. 30 μL i.p. daily treatments were started when tumor size reached ˜100 mm^3. […] SHO nude mice bearing an A375 human melanoma xenograft (n=5 per group). Each mouse received 2.5×10^6 cells by s.c. injection into the flank. 30 μL i.p. daily treatments were started when the tumor size reached ˜150 mm^3. Control, vehicle solution only; points, means; bars, SD. DTIC, (5-(3,3,-dimethyl-1-triazenyl)-imidazole-4-carboxamide, dacarbazine.
Average body weight of all groups increased slightly throughout the experiment period.

OVCAR-8 = assay: Growth inhibition, OVCAR-8; format: cell-based; details: Homo sapiens, OVCAR-8, read-out: IC50 (nM), OVCAR-8
B16-F1 melanoma cells = assay: B16-F1 melanoma colony formation assay in soft agar; format: cell-based, mouse; details: 14 days; tested 20, 100, 500 nM
Experimental: B16-F1 melanoma cells were plated at a colony-forming density (2000 cells per well on six-well plates) on top of 0.8% base agar. Cells were grown in 0.4% agar together with DMEM medium supplemented with fetal bovine serum and an antibiotic-antimycotic solution at 37° C. in an atmosphere of 95% air and 5% CO2. […] Compounds were added to the media from 1 mM DMSO stock solutions, and a corresponding dilution of DMSO was used as control. Cells were grown for 14 days. Plates were photographed, and the number of colonies was measured by Artek 880 Automated Colony Counter (Artek Systems Corporation, Farmingdale, N.Y.).

WM164 = assay: SRB cell culture cytotoxicity assay, WM-164; format: cell-based, human; details: 48 h
B16-F1 = assay: SRB cell culture cytotoxicity assay, B16-F1; format: cell-based, mouse; details: 48 h
DU145/TXR = assay: Growth inhibition, DU145/TXR; format: cell-based; details: RABI, Table 10A; read-out: DU145/TXR (nM), inhibitory effects
MDA-MB-435/LCC6MDR1 = assay: SRB growth inhibition, multidrug-resistant MDA-MB-435/LCC6MDR1; format: cell-based; details: Tables 11C, 11D; read-out: IC50 ± SEM (μm), MDA-MB-435/LCC6MDR1
Du 145 = assay: SRB cytotoxicity assay, Du 145; format: cell-based, human; details: RABI, Tables 10A/10B; read-out: DU145 (nM), inhibitory effects
LNCaP = assay: SRB cytotoxicity assay, LNCaP; format: cell-based, human; details: Reversed aryl benzoyl imidazole (RABI), Tables 10A/10B; read-out: LNCaP (nM), inhibitory effects
MDA-MB-435 = assay: SRB growth inhibition, MDA-MB-435 (sensitive parent melanoma line); format: cell-based, human; details: Tables 11C, 11D; read-out: IC50 ± SEM (μm), MDA-MB-435
PC-3 = assay: SRB cytotoxicity assay, PC-3; details: read-out: PC3 (nM), inhibitory effects; RABI, Tables 10A/10B
PPC-1 = assay: SRB cytotoxicity assay, PPC-1; format: cell-based, human; details: RABI, Tables 10A/10B; read-out: PPC1 (nM), inhibitory effects
A375 = assay: SRB cell culture cytotoxicity assay, A375; format: cell-based, human; details: Tables 11C, 11D; read-out: IC50 ± SEM (μm), A375
[3] = Metabolic stability in human liver microsomes; details: Table 13A; mean from duplicate studies
[4] = ICR, Sprague-Dawley, beagle, mouse, in vivo
Experimental: All compounds (10 mg/kg) were dissolved in DMSO/PEG300 (1/9) and administered by a single intravenously (i.v.) injection (50 μL) into the tail vein.

in vivo = details: nude, mouse, 20 mg/kg

In the case of `O=C(c1ccc(F)cc1)c1c[nH]c(-c2ccc(Cl)cc2)n1` [12fb, (2-(4-chlorophenyl)-1H-imidazol-4-yl)(4-fluorophenyl)methanone], the “melanoma tumor growth inhibition (TGI value)” value (B16-F1 melanoma; 15 mg/kg) is reported as 32%, the “melanoma tumor growth inhibition (TGI value)” value (B16-F1 melanoma; 45 mg/kg) is reported as 82% and the “metastasis of melanoma to the lungs” value [1] is reported as “inhibition”. For the same compound, the “melanoma tumor growth inhibition (TGI value)” value [2] was 69%, the IC50 (OVCAR-8) was 47 nM and the “concentration showing effective inhibition of B16-F1 colony formation” value (B16-F1 melanoma cells) was 100 nM.

With `COc1cc(C(=O)c2c[nH]c(-c3ccc(O)cc3)n2)cc(O)c1OC` [12kc] the IC50 (WM164) was 6400 nM and the IC50 (B16-F1) was 5600 nM.

Work on `COc1cc(C(=O)c2nc(-c3ccc(Cl)cc3)c[nH]2)cc(OC)c1OC` [70c] yielded an IC50 (DU145/TXR) of 121 nM.

`COc1cc(-c2c[nH]c(C(=O)c3ccccc3)n2)cc(OC)c1OC` [70x] showed an IC50 (MDA-MB-435/LCC6MDR1) of 5.77 µM, an IC50 (Du 145) of 1300 nM and an IC50 (LNCaP) of 195 nM. It also gave an IC50 (MDA-MB-435) of 4.61 µM, an IC50 (PC-3) of 632 nM and an IC50 (PPC-1) of 408 nM.

With `COc1cc(Cc2nc(-c3ccccc3)c[nH]2)cc(OC)c1OC` [102a] the IC50 (A375) was 10.2 ± 0.392 µM.

With `COc1cc(C(=O)c2csc(Nc3ccc4[nH]ccc4c3)n2)cc(OC)c1OC` [compound 55] the “half-life in human liver microsomes” value [3] was 28 min, the “oral bioavailability rates among three species” value [4] was 24-36% and the Kp (in vivo) was 3.2.
